Measurements reported in paper PMC9616876, “Structures of the CcmABCD heme release complex at multiple states” (Nature Communications, 2022).

Legend:
[1] = molecular target: T1, CcmABCD (ATP-binding site in CcmA) (Escherichia coli, UniProt P33931); assay: cryo-EM structure
T1 construct: full-length CcmA2B2C1D1, N-terminal His6 on CcmA; CcmABCDE operon co-expressed in E. coli BL21(DE3), CcmE not observed in purified complex; DDM-solubilised membranes; with Heme exporter protein B; Heme exporter protein C; Heme exporter protein D

[2] = molecular target: the molecule itself; assay: cryo-EM structure; CcmABCD purified in DDM (20 mM Tris-HCl pH 7.5, 50 mM NaCl, 0.03% DDM), ~12 mg/ml; apo, with 3.5 mM MgCl2 and AMP-PNP, or with 3.5 mM MgCl2, ATP, heme b and 1 mM DTT; closed, semi-open and open NBD states

Nc1ncnc2c1ncn2[C@@H]1O[C@H](COP(=O)(O)OP(=O)(O)NP(=O)(O)O)[C@@H](O)[C@H]1O [AMP-PNP]
cryo-EM structure ([1]; 3.5 mM AMP-PNP, 3.5 mM MgCl2, two AMP-PNP, closed NBD state): CcmABCD bound with AMP-PNP in closed NBD state

Nc1ncnc2c1ncn2[C@@H]1O[C@H](COP(=O)(O)OP(=O)(O)OP(=O)(O)O)[C@@H](O)[C@H]1O [ATP]
cryo-EM structure ([1]; 3.5 mM ATP, 3.5 mM MgCl2, 3.5 mM heme b, 1 mM DTT, two ATP in closed NBD state (7F04), one ATP in semi-open NBD state (7VFP), ATPase activity also measured): CcmABCD bound with heme b and double ATPs in closed NBD state

O=P(O)(O)O [inorganic phosphate]
cryo-EM structure ([1]; no nucleotide added, one phosphate per CcmA, closed NBD state, membranes purified in potassium phosphate buffer): each CcmA binds one inorganic phosphate

B1: CcmA (natural protein, E. coli BL21 (DE3))
chain: MGMLEARELLCERDERTLFSGLSFTLNAGEWVQITGSNGAGKTTLLRLLTGLSRPDAGEVLWQGQPLHQVRDSYHQNLLWIGHQPGIKTRLTALENLHFYHRDGDTAQCLEALAQAGLAGFEDIPVNQLSAGQQRRVALARLWLTRATLWILDEPFTAIDVNGVDRLTQRMAQHTEQGGIVILTTHQPLNVAESKIRRISLTQTRAA
notes: The whole CcmABCDE gene stretch was amplified by PCR from the genome; also called hexahistidine-tagged CcmA; NBD; not shown: His6, N-terminal, kept
stoichiometry N [2]: 2

B2: CcmB (natural protein, E. coli BL21 (DE3))
chain: MMFWRIFRLELRVAFRHSAEIANPLWFFLIVITLFPLSIGPEPQLLARIAPGIIWVAALLSSLLALERLFRDDLQDGSLEQLMLLPLPLPAVVLAKVMAHWMVTGLPLLILSPLVAMLLGMDVYGWQVMALTLLLGTPTLGFLGAPGVALTVGLKRGGVLLSILVLPLTIPLLIFATAAMDAASMHLPVDGYLAILGALLAGTATLSPFATAAALRISIQ
notes: CcmB, integral membrane protein with six transmembrane helices, gene amplified from the E. coli BL21 (DE3) genome; also called CcmB1; CcmB2
stoichiometry N [2]: 2
